Results on 19 compounds are retold here after US8455475B2 (Gruenenthal GmbH, priority 2009, dated 2013).

Experiment [1] deals with T1, rat B1R (bradykinin receptor 1) (Rattus norvegicus, UniProt P97583).
T1 construct: expressed in transfected cells; host or cells: CHO K1 cells
T1 sequence (P97583 1-337): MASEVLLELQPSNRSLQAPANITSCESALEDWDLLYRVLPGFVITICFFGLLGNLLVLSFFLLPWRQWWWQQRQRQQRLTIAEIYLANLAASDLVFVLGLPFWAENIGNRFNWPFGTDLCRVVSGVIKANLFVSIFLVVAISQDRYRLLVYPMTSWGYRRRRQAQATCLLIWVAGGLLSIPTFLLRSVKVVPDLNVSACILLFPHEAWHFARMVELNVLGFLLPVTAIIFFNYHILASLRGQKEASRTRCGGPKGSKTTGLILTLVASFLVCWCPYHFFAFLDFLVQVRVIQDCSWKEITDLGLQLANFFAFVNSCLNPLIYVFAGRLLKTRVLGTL
Put plainly: FLIPR Ca2+ assay (Fluo-4) on CHO K1 cells stably transfected with the B1R gene of the rat (rB1R cells): % inhibition at 10 μM / IC50, agonist Des-Arg9-bradykinin. It counts as cell-based. The settings on record: for inhibition at 10 µM: CHO-K1, rat B1R. Put shortly: (§1)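 Using a two-addition FLIPR protocol, compound (10 μM for % values; concentration series for IC50) was preincubated 10–20 min with Fluo-4-loaded B1R-expressing CHO K1 cells before EC80 agonist challenge. Suppression of Ca2+ inflow, read as peak fluorescence, is expressed relative to maximum achievable inhibition; duplicate/triplicate, ≥2 independent experiments.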

The target of experiment [2] is T2, human B1R (bradykinin receptor 1) (Homo sapiens, UniProt P46663).
T2 construct: expressed in transfected cells; host or cells: CHO K1 cells
T2 sequence (P46663 1-353): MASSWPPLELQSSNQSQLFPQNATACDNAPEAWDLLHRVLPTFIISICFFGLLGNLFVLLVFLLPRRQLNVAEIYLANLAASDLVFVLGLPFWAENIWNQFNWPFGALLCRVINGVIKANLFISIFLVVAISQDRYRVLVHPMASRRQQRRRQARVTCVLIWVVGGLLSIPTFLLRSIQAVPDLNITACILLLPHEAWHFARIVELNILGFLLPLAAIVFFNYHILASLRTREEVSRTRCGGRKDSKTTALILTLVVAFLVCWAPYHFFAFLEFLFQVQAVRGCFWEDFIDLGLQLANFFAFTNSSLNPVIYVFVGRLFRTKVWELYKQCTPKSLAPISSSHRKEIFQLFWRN
Put plainly: FLIPR Ca2+ assay (Fluo-4) on CHO K1 cells stably transfected with the human B1R gene (hB1R cells): % inhibition at 10 μM / IC50, agonist Lys-Des-Arg9-bradykinin. It counts as cell-based. To be noted: for inhibition at 10 µM: CHO-K1, human B1R. Put shortly:
as §1

For orientation: inhibition means the relative decrease from the control value, in per cent. As to `O=C(N[C@H]1CCCc2ccc(C(=O)N3CCC4(CC3)CCN(c3ccncc3)CC4)cc21)c1ccccc1Cl` [Example H-10, 2-chloro-N-[(1S)-7-(9-pyridin-4-yl-3,9-diazaspiro[5.5]undecane-3-carbonyl)-1,2,3,4-tetrahydro-naphthalen-1-yl]-benzamide], the figures for the inhibition at 10 µM in experiment [1] and in experiment [2] were 103% and 49%, respectively.
In the case of `O=C(N[C@@H]1CCc2ccc(C(=O)N3CCC4(CCN(c5ccncc5)CC4)C3)cc21)c1c(Cl)cccc1C(F)(F)F` [Example H-76, 2-Chloro-N-[(1R)-6-(8-pyridin-4-yl-3,8-diazaspiro[4.5]decane-3-carbonyl)-2,3-dihydro-1H-inden-1-yl]-6-(trifluoromethyl)-benzamide], the inhibition at 10 µM in experiment [1] was determined as 102%; in experiment [2] it was 100%.
In the case of `O=C(NC1CCc2ccc(C(=O)N3CCC4(CCN(c5ccncc5)CC4)C3)cc21)c1c(F)cccc1Cl` (centres unmarked) [IND_CC-280, 2-Chloro-6-fluoro-N-[6-(8-pyridin-4-yl-2,8-diazaspiro[4.5]decane-2-carbonyl)-2,3-dihydro-1H-inden-1-yl]-benzamide], the results for the inhibition at 10 µM in experiment [1] and in experiment [2] were 108% and 100%, respectively.
On to “2-Chloro-N-[2,2-dimethyl-6-(9-pyridin-4-yl-3,9-diazaspiro[5.5]undecane-3-carbonyl)-1,3-dihydro-inden-1-yl]-3-(trifluoromethyl)-benzamide [IND_CC-234]”, for which the “% Inhibition (rat B1R) at 10 μM” value in experiment [1] is recorded as 99%. The “% Inhibition (human B1R) at 10 μM” value in experiment [2] was found to be 85%.
Consider `O=C(N[C@@H]1CCOc2ccc(C(=O)N3CCC4(CC3)CCN(c3ccncc3)CC4)cc21)c1ccccc1Cl` [Example H-58, 2-Chloro-N-[(4R)-6-(9-pyridin-4-yl-3,9-diazaspiro[5.5]undecane-3-carbonyl)-3,4-dihydro-2H-chromen-4-yl]-benzamide], for which the inhibition at 10 µM in experiment [1] turned out to be 106%; in experiment [2], 99%.
With `O=C(NC1CCc2ccc(C(=O)N3CCC4(CCN(c5ccncc5)CC4)C3)cc21)C(c1ccccc1)c1ccccc1Cl` (centres unmarked) [Ind_CC-082, 2-(2-chlorophenyl)-2-phenyl-N-[6-(8-pyridin-4-yl-3,8-diazaspiro[4.5]decane-3-carbonyl)-2,3-dihydro-1H-inden-1-yl]-acetamide], the figures for the inhibition at 10 µM in experiment [1] and in experiment [2] were 101% and 100%, respectively.
For the compound `O=C(NC1CCc2ccc(C(=O)N3CCC4(CCN(c5ccncc5)CC4)C3)cc21)c1cc(Cl)ccc1Cl` (centres unmarked) [IND_CC-245, 2,5-Dichloro-N-[6-(8-pyridin-4-yl-2,8-diazaspiro[4.5]decane-2-carbonyl)-2,3-dihydro-1H-inden-1-yl]-benzamide], the values for the inhibition at 10 µM in experiment [1] and in experiment [2] were 101% and 100%, respectively.
For the compound `Cc1nc[nH]c1CN1CCC2(CC1)CCN(C(=O)c1ccc3c(c1)C(NC(=O)c1ccccc1Cl)CC3)C2` (centres unmarked) [IND_CC-553, 2-Chloro-N-[6-[8-[(5-methyl-3H-imidazol-4-yl)-methyl]-2,8-diazaspiro[4.5]decane-2-carbonyl]-2,3-dihydro-1H-inden-1-yl]-benzamide], the values for the inhibition at 10 µM in experiment [1] and in experiment [2] were 90% and -2%, respectively.
In the case of `O=C(NC1CCc2ccc(C(=O)N3CCC4(CC3)CCN(c3ccncc3)CC4)cc21)c1ccccc1Cl` (centres unmarked) [Example H-02, 2-chloro-N-[6-(3-pyridin-4-yl-3,9-diazaspiro[5.5]undecane-9-carbonyl)-2,3-dihydro-1H-inden-1-yl]-benzamide], the “% Inhibition (rat B1R) at 10 μM” value in experiment [1] (10 µM) came to 100%. Also, the “% Inhibition (human B1R) at 10 μM” value in experiment [2] (10 µM) was found to be 100%.
Take `CN(C(=O)c1ccccc1Cl)C1CCc2ccc(C(=O)N3CCC4(CCN(c5ccncc5)CC4)C3)cc21` (centres unmarked) [Ind_CC-111, 2-chloro-N-methyl-N-[6-(8-pyridin-4-yl-2,8-diazaspiro[4.5]decane-2-carbonyl)-2,3-dihydro-1H-inden-1-yl]-benzamide]: the inhibition at 10 µM in experiment [1] amounted to 101%; in experiment [2], 100%.
Take `O=C(N[C@H]1CCc2cc(C(=O)N3CCC4(CC3)CCN(c3ccncc3)CC4)ccc21)c1ccccc1Cl` [Example H-156, 2-Chloro-N-[(1S)-5-(9-pyridin-4-yl-3,9-diazaspiro[5.5]undecane-3-carbonyl)-2,3-dihydro-1H-inden-1-yl]-benzamide]: the inhibition at 10 µM worked out at 75% in experiment [1] and 24% in experiment [2].
Turning to `O=C(N[C@@H]1CCc2ccc(C(=O)N3CCC4(CCC(OCCn5ccnc5)CC4)CC3)cc21)c1ccccc1Cl` [Example H-120, 2-Chloro-N-[6-[9-[2-(1H-imidazol-1-yl)-ethoxy]-3-azaspiro[5.5]undecane-3-carbonyl]-2,3-dihydro-1H-inden-1-yl]-benzamide], the inhibition at 10 µM is 104% in experiment [1] and 65% in experiment [2].
Consider `O=C(N[C@@H]1CCCc2ccc(C(=O)N3CCC4(CC3)CCN(c3ccncc3)C4)cc21)c1ccccc1Cl` [Example H-72], for which the inhibition at 10 µM in experiment [1] stood at 104%; in experiment [2] it was 100%.
For `CN(C)C1(c2ccc(F)cc2)CCC2(CCN(C(=O)c3ccc4c(c3)C(NC(=O)c3ccccc3Cl)CC4)CC2)CC1` (centres unmarked) [Ind_CC-099, 2-chloro-N-[6-[9-dimethylamino-9-(4-fluorophenyl)-3-azaspiro[5.5]undecane-3-carbonyl]-2,3-dihydro-1H-inden-1-yl]-benzamide], the inhibition at 10 µM amounted to 103% in experiment [1] and 39% in experiment [2].
As to `CN(C(=O)c1ccccc1Cl)C1CCc2ccc(C(=O)N3CCC4(CC3)CCN(c3ccncc3)CC4)cc21` (centres unmarked) [Ind_CC-106, 2-chloro-N-methyl-N-[6-(9-pyridin-4-yl-3,9-diazaspiro[5.5]undecane-3-carbonyl)-2,3-dihydro-1H-inden-1-yl]-benzamide], the inhibition at 10 µM in experiment [1] and in experiment [2] was 100% in each case.
For the compound `O=C(N[C@@H]1CCc2ccc(C(=O)N3CCC4(CCN(c5ccncc5)CC4)C3)cc21)c1c(F)cccc1Cl` [Example H-109, 2-Chloro-6-fluoro-N-[(1R)-6-(8-pyridin-4-yl-3,8-diazaspiro[4.5]decane-3-carbonyl)-2,3-dihydro-1H-inden-1-yl]-benzamide], the results for the inhibition at 10 µM in experiment [1] and in experiment [2] were 109% and 100%, respectively.
For `O=C(NC1CCc2ccc(C(=O)N3CCC4(CCN(c5ccncc5)CC4)C3)cc21)c1cc(F)ccc1Cl` (centres unmarked) [IND_CC-253, 2-Chloro-5-fluoro-N-[6-(8-pyridin-4-yl-2,8-diazaspiro[4.5]decane-2-carbonyl)-2,3-dihydro-1H-inden-1-yl]-benzamide], the inhibition at 10 µM in experiment [1] and in experiment [2] was 100% each time.
Take `O=C(N[C@H]1CCc2c(C(=O)N3CCC4(CCN(c5ccncc5)CC4)C3)cccc21)c1ccccc1Cl` [Example H-161, 2-Chloro-N-[(1S)-4-(8-pyridin-4-yl-3,8-diazaspiro[4.5]decane-3-carbonyl)-2,3-dihydro-1H-inden-1-yl]-benzamide]: the figures for the inhibition at 10 µM in experiment [1] and in experiment [2] were 104% and 89%, respectively.
`Cc1ccc(F)c(C(=O)NC2CC(C)(C)c3ccc(C(=O)N4CCC5(CC4)CCN(c4ccncc4)CC5)cc32)c1Cl` (centres unmarked) [IND_CC-248, 2-Chloro-N-[3,3-dimethyl-6-(3-pyridin-4-yl-3,9-diazaspiro[5.5]undecane-9-carbonyl)-1,2-dihydro-inden-1-yl]-6-fluoro-3-methyl-benzamide]: the inhibition at 10 µM in experiment [1] was 102%; in experiment [2], 90%.
